Measurements: publication doi:10.1101/2025.05.30.657074, “A covalent recognition strategy enables conspecific mate identification” (bioRxiv, 2025)

Assays:
OR3_V352A = OR3_V352A (Bombyx mori, UniProt Q5FBE0, V352A); experiment: GCaMP6 calcium flux assay, BmOR3/Orco mutant V352A; format: cell-based
Excerpt: (§1) The first insect pheromone system characterized at the molecular level is that of Bombyx mori, a moth long known to navigate towards its mate guided solely by pheromone cues with impressive navigation accuracy. Two PR/Orco complexes, BmOR1/BmOrco and BmOR3/BmOrco, have been linked to the behavioral responses to pheromones in B. mori (Figure 1A). The conspecific pheromone, bombykol, is detected through BmOR1/Orco and leads to sexual attraction. The heterospecific pheromone, bombykal, is sensed through BmOR3/Orco, and leads to suppression of mating behavior. We first characterized the extent to which both PR/Orco complexes are selective towards their cognate ligands. We used a previously established calcium flux functional assay where we co-transfected HEK293 cells with either BmOR1 or BmOR3, along with the coreceptor, BmOrco (here on referred to as Orco), and the fluorescent calcium reporter, GCaMP6 (Figure 1C). In this assay, ligand-activation of the heteromeric ion channel complexes by addition of either bombykol or bombykal leads to calcium influx, read out as GCaMP6 fluorescence changes that can be monitored in real-time and dose-dependent manner using a fluorescence plate reader. […]
(§2) HEK293T cells were maintained at 37°C with 5% carbon dioxide and grown in high glucose DMEM enhanced with 10% FBS and 1% GlutaMAX (Gibco). […] Cells were kept at 37°C for 18-20 hours before being used for fluorescence plate reading. […]
(§3) On the day of the GCaMP6 assay, Bravo (Agilent), a versatile liquid handler was used to prepare both the odorant plate and the assay plate (transfected cell plate) prior to the fluorescence readout using the FDSS/µcell kinetic plate Imager (Hamamatsu, C13299).
(§4) For the odorant plate, the DMSO dissolved stock solutions were diluted in 19.8 µL of Reading buffer (20 mM HEPES/NaOH (pH 7.4), 1× HBSS (Gibco), 3 mM Na2CO3, 1 mM MgSO4, and 5 mM CaCl2) to give a final concentration ranging from 3.16 nM to 1 mM with 1% DMSO. […]
(§5) The kinetics of the fluorescence change upon odorant addition were measured using the FDSS/µcell kinetic plate Imager (Hamamatsu, C13299). […]

OR3_C215S = OR3_C215S (Bombyx mori, UniProt Q5FBE0, C215S); experiment: GCaMP6 calcium flux assay, BmOR3/Orco mutant C215S; format: cell-based
Chain of OR3_C215S (Q7YT34 entry or part of it, stated change not applied): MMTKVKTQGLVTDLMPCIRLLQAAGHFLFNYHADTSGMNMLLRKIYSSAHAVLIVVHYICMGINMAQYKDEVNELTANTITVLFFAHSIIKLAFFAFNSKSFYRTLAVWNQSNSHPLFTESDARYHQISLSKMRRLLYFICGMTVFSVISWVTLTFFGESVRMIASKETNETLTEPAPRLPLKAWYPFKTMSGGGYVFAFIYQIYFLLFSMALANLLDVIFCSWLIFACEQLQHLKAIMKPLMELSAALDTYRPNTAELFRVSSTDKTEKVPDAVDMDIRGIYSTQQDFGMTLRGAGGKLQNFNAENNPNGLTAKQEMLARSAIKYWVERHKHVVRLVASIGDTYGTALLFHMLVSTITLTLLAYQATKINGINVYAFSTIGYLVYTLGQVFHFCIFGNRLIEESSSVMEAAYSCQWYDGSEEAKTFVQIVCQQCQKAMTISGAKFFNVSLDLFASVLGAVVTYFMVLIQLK
Chain of OR3_C215S (Q5FBE0 entry or part of it C215S): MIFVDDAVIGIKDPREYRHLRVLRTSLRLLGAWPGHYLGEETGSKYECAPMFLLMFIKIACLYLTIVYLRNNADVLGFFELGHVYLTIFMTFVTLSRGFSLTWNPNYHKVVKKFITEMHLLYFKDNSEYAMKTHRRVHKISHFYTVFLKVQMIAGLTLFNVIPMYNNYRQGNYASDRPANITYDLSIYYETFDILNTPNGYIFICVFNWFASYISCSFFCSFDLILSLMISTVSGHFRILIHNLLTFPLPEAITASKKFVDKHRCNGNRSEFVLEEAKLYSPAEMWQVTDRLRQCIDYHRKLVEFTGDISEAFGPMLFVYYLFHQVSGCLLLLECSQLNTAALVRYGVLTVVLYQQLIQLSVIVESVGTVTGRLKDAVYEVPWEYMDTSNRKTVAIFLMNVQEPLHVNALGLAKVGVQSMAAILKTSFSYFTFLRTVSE
Excerpt: as §1, §2, §3, §4, §5

OR3_K58S = OR3_K58S (Bombyx mori, UniProt Q5FBE0, K58S); experiment: GCaMP6 calcium flux assay, BmOR3/Orco mutant K58S; format: cell-based
Chain of OR3_K58S (Q5FBE0 entry or part of it K58S): as the sequence (Q5FBE0 entry or part of it C215S) above, with K58S, S215C counted along it
Chain of OR3_K58S (Q7YT34 entry or part of it, stated change not applied, further chain): as the sequence (Q7YT34 entry or part of it, stated change not applied) above
Excerpt: (§6) The first insect pheromone system characterized at the molecular level is that of Bombyx mori, a moth long known to navigate towards its mate guided solely by pheromone cues with impressive navigation accuracy. Two PR/Orco complexes, BmOR1/BmOrco and BmOR3/BmOrco, have been linked to the behavioral responses to pheromones in B. mori (Figure 1A). The conspecific pheromone, bombykol, is detected through BmOR1/Orco and leads to sexual attraction. The heterospecific pheromone, bombykal, is sensed through BmOR3/Orco, and leads to suppression of mating behavior. We first characterized the extent to which both PR/Orco complexes are selective towards their cognate ligands. We used a previously established calcium flux functional assay where we co-transfected HEK293 cells with either BmOR1 or BmOR3, along with the coreceptor, BmOrco (here on referred to as Orco), and the fluorescent calcium reporter, GCaMP6 (Figure 1C). In this assay, ligand-activation of the heteromeric ion channel complexes by addition of either bombykol or bombykal leads to calcium influx, read out as GCaMP6 fluorescence changes that can be monitored in real-time and dose-dependent manner using a fluorescence plate reader. […] But we also found both PR/Orco complexes to be somewhat promiscuous: both complexes are activated by their non-cognate pheromones (bombykal for BmOR1/Orco and bombykol for BmOR3/Orco) with a response that is ~10 fold smaller than their cognate pheromones. […] Instead, two complexes with reciprocal specificities enable an unequivocal response to bombykal and bombykol across all concentrations, ensuring the behavioral accuracy needed for mate selection.
(§7) The assay was performed similarly to method descriptions in previous studies.
(§8) All DNA constructs used in this assay were cloned into a modified pME18 vector that contains a SV40 promotor.
(§9) Each transfection condition (per well) contained a total of 300 ng of plasmids in 1:1:1 ratio of the GCaMP6, Orco, and the corresponding OR plasmid that was diluted in 4.8 uL of OptiMEM (Gibco) along with 0.1 uL of P3000. The mixture was incubated for 5 minutes and then further incubated for 20 minutes after being mixed with Lipofectamine 3000 (Invitrogen) diluted in OptiMEM. This mixture was scaled accordingly to batch transfect 50-100 wells per construct per plate.
(§10) HEK293T cells were maintained at 37°C with 5% carbon dioxide and grown in high glucose DMEM enhanced with 10% FBS and 1% GlutaMAX (Gibco). Cells were detached with TrypLE Express Enzyme and resuspended in FluoroBrite DMEM (Gibco) with 10% FBS and 1% GlutaMAX (Gibco) to a concentration of 5 × 10^5 cells/ml. Cells were combined with each transfection condition and added to 2x16 wells of a 384-well plate (Grenier CELLSTAR). Cells were kept at 37°C for 18-20 hours before being used for fluorescence plate reading.
(§11) Odorant plates were prepared using D300e (Hewlett Packard), a digital, non-contact dispenser. Briefly, stock solutions of bombykol and bombykal were prepared in DMSO and plated onto 384-plates (Greiner, Catalog #784201) in a titrating volume to obtain a concentration series ranging between 316 nM and 100 mM with a final volume of 0.2 µL.
(§12) The odorant plates were kept at −20 °C until usage.
as §3
as §4, with “DMSO. For the cell plate, the FluoroBrite DMEM (Gibco) was exchanged out with the” for “DMSO.”
as §5

BmOR1/Orco = BmOR1/Orco (Bombyx mori, UniProt Q5WA61); experiment: GCaMP6 calcium flux assay, wild-type BmOR1/Orco; format: cell-based
Chain of BmOR1/Orco (Q7YT34 entry or part of it): as the sequence (Q7YT34 entry or part of it, stated change not applied) above
Chain of BmOR1/Orco (Q5WA61 entry or part of it): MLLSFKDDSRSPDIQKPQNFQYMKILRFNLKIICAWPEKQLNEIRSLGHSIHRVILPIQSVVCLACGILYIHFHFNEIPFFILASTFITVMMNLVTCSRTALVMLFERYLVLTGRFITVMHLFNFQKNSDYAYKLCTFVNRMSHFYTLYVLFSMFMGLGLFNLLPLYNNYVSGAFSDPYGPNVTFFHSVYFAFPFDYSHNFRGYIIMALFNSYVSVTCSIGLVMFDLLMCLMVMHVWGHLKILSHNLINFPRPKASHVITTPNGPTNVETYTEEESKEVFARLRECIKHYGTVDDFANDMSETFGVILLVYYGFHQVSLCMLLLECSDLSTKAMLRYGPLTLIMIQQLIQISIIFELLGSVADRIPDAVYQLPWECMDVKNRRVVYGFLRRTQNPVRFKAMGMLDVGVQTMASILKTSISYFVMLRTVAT
Excerpt: as §6, §7, §8, §9, §10, §11, §12, §3
as §4, with “DMSO. For the cell plate, the FluoroBrite DMEM (Gibco) was exchanged out with the” for “DMSO.”
as §5

OR3_L349A = OR3_L349A (Bombyx mori, UniProt Q5FBE0, L349A); experiment: GCaMP6 calcium flux assay, BmOR3/Orco mutant L349A; format: cell-based
Chain of OR3_L349A (Q7YT34 entry or part of it, stated change not applied): as the sequence (Q7YT34 entry or part of it, stated change not applied) above
Chain of OR3_L349A (Q5FBE0 entry or part of it L349A): as the sequence (Q5FBE0 entry or part of it C215S) above, with S215C, L349A counted along it
Excerpt: as §1, §2, §3, §4, §5

OR3_C215A = OR3_C215A (Bombyx mori, UniProt Q5FBE0, C215A); experiment: GCaMP6 calcium flux assay, BmOR3/Orco mutant C215A; format: cell-based
Chain of OR3_C215A (Q5FBE0 entry or part of it C215A): as the sequence (Q5FBE0 entry or part of it C215S) above, with S215A counted along it
Chain of OR3_C215A (Q7YT34 entry or part of it, stated change not applied, further chain): as the sequence (Q7YT34 entry or part of it, stated change not applied) above
Excerpt: as §1, §2, §3, §4, §5

OR3_F159A = OR3_F159A (Bombyx mori, UniProt Q5FBE0, F159A); experiment: GCaMP6 calcium flux assay, BmOR3/Orco mutant F159A; format: cell-based
Chain of OR3_F159A (Q5FBE0 entry or part of it F159A): as the sequence (Q5FBE0 entry or part of it C215S) above, with F159A, S215C counted along it
Chain of OR3_F159A (Q7YT34 entry or part of it, stated change not applied, further chain): as the sequence (Q7YT34 entry or part of it, stated change not applied) above
Excerpt: as §1, §2, §3, §4, §5

OR3_K58Q = OR3_K58Q (Bombyx mori, UniProt Q5FBE0, K58Q); experiment: GCaMP6 calcium flux assay, BmOR3/Orco mutant K58Q; format: cell-based
Chain of OR3_K58Q (Q5FBE0 entry or part of it K58Q): as the sequence (Q5FBE0 entry or part of it C215S) above, with K58Q, S215C counted along it
Chain of OR3_K58Q (Q7YT34 entry or part of it, stated change not applied, further chain): as the sequence (Q7YT34 entry or part of it, stated change not applied) above
Excerpt: as §6, §7, §8, §9, §10, §11, §12, §3
as §4, with “DMSO. For the cell plate, the FluoroBrite DMEM (Gibco) was exchanged out with the” for “DMSO.”
as §5

B. mori male moths = test system: B. mori male moths; parameters: method as in PMID 24744736, PMID 22836825; conditions: conspecific male moths; cited from earlier work
OR3_K58A = OR3_K58A (Bombyx mori, UniProt Q5FBE0, K58A); experiment: GCaMP6 calcium flux assay, BmOR3/Orco mutant K58A; format: cell-based
Chain of OR3_K58A (Q5FBE0 entry or part of it K58A): as the sequence (Q5FBE0 entry or part of it C215S) above, with K58A, S215C counted along it
Chain of OR3_K58A (Q7YT34 entry or part of it, stated change not applied, further chain): as the sequence (Q7YT34 entry or part of it, stated change not applied) above
Excerpt: as §6, §7, §8, §9, §10, §11, §12, §3
as §4, with “DMSO. For the cell plate, the FluoroBrite DMEM (Gibco) was exchanged out with the” for “DMSO.”
as §5

OR3_V348A = OR3_V348A (Bombyx mori, UniProt Q5FBE0, V348A); experiment: GCaMP6 calcium flux assay, BmOR3/Orco mutant V348A; format: cell-based
Chain of OR3_V348A (Q7YT34 entry or part of it, stated change not applied): as above
Chain of OR3_V348A (Q5FBE0 entry or part of it V348A): as the sequence (Q5FBE0 entry or part of it C215S) above, with S215C, V348A counted along it
Excerpt: as §1, §2, §3, §4, §5

BmOR3/Orco = BmOR3/Orco (Bombyx mori, UniProt Q5FBE0); experiment: GCaMP6 calcium flux assay, wild-type BmOR3/Orco; format: cell-based
Chain of BmOR3/Orco (Q5FBE0 entry or part of it): as the sequence (Q5FBE0 entry or part of it C215S) above, with S215C counted along it
Chain of BmOR3/Orco (Q7YT34 entry or part of it, further chain): as the sequence (Q7YT34 entry or part of it, stated change not applied) above
Excerpt: as §6, §7, §8, §9, §10, §11, §12, §3
as §4, with “DMSO. For the cell plate, the FluoroBrite DMEM (Gibco) was exchanged out with the” for “DMSO.”
as §5

OR3_L353A = OR3_L353A (Bombyx mori, UniProt Q5FBE0, L353A); experiment: GCaMP6 calcium flux assay, BmOR3/Orco mutant L353A; format: cell-based
Chain of OR3_L353A (Q5FBE0 entry or part of it L353A): as the sequence (Q5FBE0 entry or part of it C215S) above, with S215C, L353A counted along it
Chain of OR3_L353A (Q7YT34 entry or part of it, stated change not applied, further chain): as the sequence (Q7YT34 entry or part of it, stated change not applied) above
Excerpt: as §1, §2, §3, §4, §5

Chain of OR3_V352A (Q5FBE0 entry or part of it V352A): as the sequence (Q5FBE0 entry or part of it C215S) above, with S215C, V352A counted along it
Chain of OR3_V352A (Q7YT34 entry or part of it, stated change not applied, further chain): as the sequence (Q7YT34 entry or part of it, stated change not applied) above

CCC/C=C\C=C\CCCCCCCCC=O [Bombykal, bombykal]
EC50 (OR3_V352A): 0.537 µM
Hill Coefficient (n± SE) (OR3_V352A; OR3_V352A): 1.9 ± 0.2
Max (ΔF/F ± SE) (OR3_V352A; OR3_V352A): 0.63 ± 0.03 ΔF/F
EC50 (OR3_C215S): 1.26 µM
Hill Coefficient (n± SE) (OR3_C215S; OR3_C215S): 1.09 ± 0.07
Max (ΔF/F ± SE) (OR3_C215S; OR3_C215S): 0.82 ± 0.05 ΔF/F
EC50 (OR3_K58S): 13.8 µM
Hill Coefficient (n± SE) (OR3_K58S; OR3_K58S): 1.2 ± 0.2
Max (ΔF/F ± SE) (OR3_K58S; OR3_K58S): 0.36 ± 0.03 ΔF/F
EC50 (BmOR1/Orco; EC50, HEK293 cells co-transfected with BmOR1, BmOrco, GCaMP6): 3 µM
EC50 (BmOR1/Orco; Mean (-log EC50 ± SE), wild-type BmOR1/Orco): 3.02 µM
response to non-cognate pheromone, fold smaller than cognate pheromone (BmOR1/Orco; bombykal vs cognate bombykol at BmOR1/Orco): ~ 10 fold
Hill Coefficient (n± SE) (BmOR1/Orco; wild-type BmOR1/Orco): 1.41 ± 0.09
Max (ΔF/F ± SE) (BmOR1/Orco; wild-type BmOR1/Orco, ΔF/F at highest ligand concentration): 1.02 ± 0.05 ΔF/F
EC50 (OR3_L349A): 3.39 µM
Hill Coefficient (n± SE) (OR3_L349A; OR3_L349A): 5 ± 3
Max (ΔF/F ± SE) (OR3_L349A; OR3_L349A): 0.48 ± 0.04 ΔF/F
EC50 (OR3_C215A): 3.16 µM
Hill Coefficient (n± SE) (OR3_C215A; OR3_C215A): 1.4 ± 0.3
Max (ΔF/F ± SE) (OR3_C215A; OR3_C215A): 0.82 ± 0.03 ΔF/F
EC50 (OR3_F159A): 12.6 µM
Hill Coefficient (n± SE) (OR3_F159A; OR3_F159A): 4 ± 2
Max (ΔF/F ± SE) (OR3_F159A; OR3_F159A): 0.16 ± 0.02 ΔF/F
EC50 (OR3_K58Q): 10.2 µM
Hill Coefficient (n± SE) (OR3_K58Q; OR3_K58Q): 1.3 ± 0.1
Max (ΔF/F ± SE) (OR3_K58Q; OR3_K58Q): 0.68 ± 0.02 ΔF/F
behavioral response (B. mori male moths): suppresses mating behavior
EC50 (OR3_K58A): 15.8 µM
Hill Coefficient (n± SE) (OR3_K58A; OR3_K58A): 0.8 ± 0.2
Max (ΔF/F ± SE) (OR3_K58A; OR3_K58A): 0.18± 0.03 ΔF/F
EC50 (OR3_V348A): 0.479 µM
Hill Coefficient (n± SE) (OR3_V348A; OR3_V348A): 1.25 ± 0.08
Max (ΔF/F ± SE) (OR3_V348A; OR3_V348A): 1.13 ± 0.04 ΔF/F
EC50 (BmOR3/Orco; EC50, HEK293 cells co-transfected with BmOR3, BmOrco, GCaMP6): 0.16 µM
EC50 (BmOR3/Orco; Mean (-log EC50 ± SE), wild-type BmOR3/Orco): 0.162 µM
Hill Coefficient (n± SE) (BmOR3/Orco; wild-type BmOR3/Orco): 1.12 ± 0.08
Max (ΔF/F ± SE) (BmOR3/Orco; wild-type BmOR3/Orco, ΔF/F at highest ligand concentration): 0.98 ± 0.05 ΔF/F
EC50 (OR3_L353A): 0.501 µM
Hill Coefficient (n± SE) (OR3_L353A; OR3_L353A): 1.3 ± 0.2
Max (ΔF/F ± SE) (OR3_L353A; OR3_L353A): 0.91 ± 0.04 ΔF/F
